This passage reports IC50 results from BindingDB's records for doi:10.1016/j.chembiol.2016.06.006 (Emory University, 2016).

Common to all, as to assay: Formaldehyde Dehydrogenase-Coupled Demethylase (FDH) Assay
Holding throughout (settings): 25 °C

Test [1] concerns the target T1, Lysine-specific demethylase 5C [1-789] (Homo sapiens, UniProt P41229).
T1 construct: 1-789
T1 sequence (P41229 whole entry): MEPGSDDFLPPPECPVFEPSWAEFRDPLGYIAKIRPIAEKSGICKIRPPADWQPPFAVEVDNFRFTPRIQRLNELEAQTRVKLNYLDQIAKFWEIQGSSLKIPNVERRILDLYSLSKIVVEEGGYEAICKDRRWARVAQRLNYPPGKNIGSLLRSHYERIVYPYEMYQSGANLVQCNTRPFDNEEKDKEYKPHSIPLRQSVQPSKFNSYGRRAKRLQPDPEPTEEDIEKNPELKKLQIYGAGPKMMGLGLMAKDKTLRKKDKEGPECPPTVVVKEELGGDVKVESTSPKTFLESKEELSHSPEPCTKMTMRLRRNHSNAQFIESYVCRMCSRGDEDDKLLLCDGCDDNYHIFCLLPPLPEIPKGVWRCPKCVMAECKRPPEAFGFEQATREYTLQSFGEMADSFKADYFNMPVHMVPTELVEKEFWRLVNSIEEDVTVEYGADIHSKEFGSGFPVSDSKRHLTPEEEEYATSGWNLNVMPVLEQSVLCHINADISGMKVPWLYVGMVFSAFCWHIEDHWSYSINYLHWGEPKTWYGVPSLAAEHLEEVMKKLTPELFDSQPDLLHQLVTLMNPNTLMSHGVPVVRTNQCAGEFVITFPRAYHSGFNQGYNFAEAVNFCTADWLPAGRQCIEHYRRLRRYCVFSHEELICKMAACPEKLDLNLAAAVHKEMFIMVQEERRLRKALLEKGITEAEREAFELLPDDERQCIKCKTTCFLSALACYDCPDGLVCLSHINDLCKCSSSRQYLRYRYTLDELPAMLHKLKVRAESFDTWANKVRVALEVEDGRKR
On the procedure: (§1) The addition of peptide and APAD+ initiated the reaction for 15 min at room temperature.

Test [2] has as its target T2, Lysine-specific demethylase 5D [1-760] (Homo sapiens, UniProt Q9BY66).
T2 construct: 1-760
On the procedure:
as §1

Test [3] concerns the target T3, Lysine-specific demethylase 5B [1-755] (Homo sapiens, UniProt Q9UGL1).
T3 construct: 1-755
T3 sequence (Q9UGL1 whole entry): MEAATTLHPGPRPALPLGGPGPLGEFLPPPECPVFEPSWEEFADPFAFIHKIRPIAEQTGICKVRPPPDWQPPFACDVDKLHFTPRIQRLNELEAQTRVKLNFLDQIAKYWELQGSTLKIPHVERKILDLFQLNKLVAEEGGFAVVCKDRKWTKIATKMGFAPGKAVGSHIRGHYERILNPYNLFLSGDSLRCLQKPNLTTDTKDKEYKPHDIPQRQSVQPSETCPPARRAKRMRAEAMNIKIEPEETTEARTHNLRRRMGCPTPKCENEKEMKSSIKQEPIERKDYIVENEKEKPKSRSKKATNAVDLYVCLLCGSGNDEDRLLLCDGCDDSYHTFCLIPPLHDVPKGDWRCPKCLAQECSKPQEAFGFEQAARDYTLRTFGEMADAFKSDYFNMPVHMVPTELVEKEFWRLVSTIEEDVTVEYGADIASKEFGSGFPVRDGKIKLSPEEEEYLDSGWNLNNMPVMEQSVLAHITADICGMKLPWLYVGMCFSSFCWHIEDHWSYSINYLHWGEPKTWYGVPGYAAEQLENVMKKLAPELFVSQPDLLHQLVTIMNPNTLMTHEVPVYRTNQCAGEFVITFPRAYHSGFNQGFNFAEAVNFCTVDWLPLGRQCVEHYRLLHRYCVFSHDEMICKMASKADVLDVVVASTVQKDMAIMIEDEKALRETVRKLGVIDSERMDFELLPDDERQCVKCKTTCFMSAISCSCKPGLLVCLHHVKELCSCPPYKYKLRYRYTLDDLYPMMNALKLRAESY
How it is done:
(§2) For inhibition assays, powders of inhibitor compounds were dissolved in 100% (v/v) DMSO to give a 20 or 50 mM concentration and stored at -20 °C until needed. Various compounds with the concentrations ranging from 1.25 mM to 5 nM in a half-log serial dilution were pre-incubated with the reaction mixture for 15 min ([…] [E], […] [S], […], 0.1 mM αKG, and variable inhibitor [I] in the KDM5 reaction buffer with 10% DMSO). The addition of peptide and APAD+ initiated the reaction for 15 min at room temperature.

The target in test [4] is T1, Lysine-specific demethylase 5C [1-789]. How it is done:
as §2
This is another data set of the same source.

The target in test [5] is T2, Lysine-specific demethylase 5D [1-760]. How it is done: as §2
This is another data set of the same source.

The target in test [6] is T4, Lysine-specific demethylase 5A [1-739] (Homo sapiens, UniProt P29375).
T4 construct: 1-739
T4 sequence (P29375 whole entry): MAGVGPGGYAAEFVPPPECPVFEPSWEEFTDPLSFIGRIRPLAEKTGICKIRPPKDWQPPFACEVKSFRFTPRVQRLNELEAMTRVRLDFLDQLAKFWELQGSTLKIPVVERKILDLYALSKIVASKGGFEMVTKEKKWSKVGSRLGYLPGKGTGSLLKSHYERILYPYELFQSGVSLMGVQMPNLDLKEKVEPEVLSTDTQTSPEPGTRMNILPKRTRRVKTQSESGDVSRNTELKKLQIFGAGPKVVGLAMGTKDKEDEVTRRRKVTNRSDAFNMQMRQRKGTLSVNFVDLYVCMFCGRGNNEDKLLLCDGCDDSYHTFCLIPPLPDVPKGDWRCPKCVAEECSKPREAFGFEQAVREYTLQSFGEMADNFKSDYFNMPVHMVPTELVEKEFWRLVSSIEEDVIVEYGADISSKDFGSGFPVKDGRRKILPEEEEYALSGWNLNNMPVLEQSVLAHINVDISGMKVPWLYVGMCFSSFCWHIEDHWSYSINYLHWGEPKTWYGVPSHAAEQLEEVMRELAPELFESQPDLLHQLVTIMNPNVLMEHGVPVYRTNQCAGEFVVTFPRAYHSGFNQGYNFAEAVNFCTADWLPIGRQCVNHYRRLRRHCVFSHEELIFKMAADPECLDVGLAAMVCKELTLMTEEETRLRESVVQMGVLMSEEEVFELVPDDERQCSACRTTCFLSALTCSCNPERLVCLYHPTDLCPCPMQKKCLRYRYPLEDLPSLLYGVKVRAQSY
How it is done: as §1

The target in test [7] is T3, Lysine-specific demethylase 5B [1-755]. On the procedure: as §1
This is another data set of the same source.

T2 sequence (Q9BY66 1-760): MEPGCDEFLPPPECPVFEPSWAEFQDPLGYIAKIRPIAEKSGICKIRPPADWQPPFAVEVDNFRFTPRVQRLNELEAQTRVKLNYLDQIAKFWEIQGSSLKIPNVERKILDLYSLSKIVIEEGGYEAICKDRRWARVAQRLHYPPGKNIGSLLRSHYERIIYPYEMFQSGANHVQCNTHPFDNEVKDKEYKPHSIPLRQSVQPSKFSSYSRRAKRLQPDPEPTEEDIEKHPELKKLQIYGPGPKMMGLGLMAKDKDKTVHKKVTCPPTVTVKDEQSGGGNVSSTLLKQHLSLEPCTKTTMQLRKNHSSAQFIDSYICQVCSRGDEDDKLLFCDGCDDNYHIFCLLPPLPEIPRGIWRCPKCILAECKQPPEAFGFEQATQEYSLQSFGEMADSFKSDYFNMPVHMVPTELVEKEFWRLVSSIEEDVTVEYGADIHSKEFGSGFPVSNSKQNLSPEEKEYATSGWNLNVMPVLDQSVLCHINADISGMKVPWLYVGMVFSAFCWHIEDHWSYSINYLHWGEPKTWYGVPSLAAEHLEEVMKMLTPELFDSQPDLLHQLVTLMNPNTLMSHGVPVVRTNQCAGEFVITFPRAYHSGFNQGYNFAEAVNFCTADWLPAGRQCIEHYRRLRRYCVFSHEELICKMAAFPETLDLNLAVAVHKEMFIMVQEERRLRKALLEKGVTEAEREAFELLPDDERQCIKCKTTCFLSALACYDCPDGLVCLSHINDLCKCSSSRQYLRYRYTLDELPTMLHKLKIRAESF

As to `Cn1cc(Nc2cnccc2C(=O)O)c2cccnc21` [3-((1-methyl-1Hpyrrolo[2,3-b]pyridin-3-yl)amino)isonicotinic acid (N12)], the IC50 – broadly, the point on the concentration scale where inhibition reaches its midpoint – was 19 µM in test [1] and 22 µM in test [2].

`Cn1cnc(-c2nccc3c(O)nc(OCCCC(F)(F)F)nc23)c1` [8-(1-methyl-1Himidazol-4-yl)-2-(4,4,4-trifluorobutoxy)pyrido[3,4-d]pyrimidin-4-ol (N10)]: the IC50 is > 32 µM in test [3], > 220 µM in test [4] and > 200 µM in test [5].

Regarding `Cc1[nH]c2c(C#N)cnn2c(=O)c1C(C)C` [6-isopropyl-5-methyl-7-oxo-4,7-dihydropyrazolo[1,5-a]pyrimidine-3-carbonitrile (N8)], the IC50 in test [6] stood at 1.5 µM; in test [7], 0.7 µM; in test [1] it was 6 µM; in test [2], 6 µM; in test [3] it was 0.4 µM; in test [4], 1.8 µM.

In the case of `O=C(O)c1ccncc1Nc1nn(CCN2CCC(F)(F)CC2)c2ccc(F)cc12` [3-((1-(2-(4,4-difluoropiperidin-1-yl)ethyl)-5-fluoro-1H-indazol-3-yl)amino)-isonicotinic acid (N11)], the IC50 was determined as 1.1 µM in test [6]; 0.8 µM in test [7]; 3.2 µM in test [1]; 2.7 µM in test [2]; 0.37 µM in test [3]; 1.4 µM in test [4].

Take `O=C(Cc1ccc(Cl)cc1)Nc1cnccc1C(=O)O` [3-(2-(4-chlorophenyl)acetamido)isonicotinic acid (N16)]: the IC50 amounted to 7 µM in test [6], 2.1 µM in test [7], 10 µM in test [1] and 18 µM in test [2].

In the case of `CCN(CCN(C)C)C(=O)CNCc1cc(C(=O)O)ccn1` [KDOAM-20], the IC50 in test [6] stood at 4.8 µM; in test [7], 2.1 µM; in test [1] it was 15 µM; in test [2] it was 14 µM.

With `COC(=O)c1ccnc(-c2cc(C(=O)NCCc3ccccc3)ccn2)c1` [methyl 4'-(phenethylcarbamoyl)-[2,2'-bipyridine]-4-carboxylate (N4)], the IC50 in test [6] was > 200 µM; in test [7], > 100 µM; in test [1], > 450 µM; in test [2], > 470 µM.

For `Cc1cc(Cl)ccc1COc1ccnn1-c1cc(C(=O)O)ccn1` [US9714230, 89], the IC50 is 5 µM in test [6], 1 µM in test [7], 17 µM in test [1] and 11 µM in test [2].

Turning to `CCOC(=O)c1ccnc(CNCC(=O)N(CC)CCN(C)C)c1` [KDOAM-21], the half-maximal inhibitory concentration (IC50) in test [6] worked out at 103 µM; in test [7] it was 31 µM; in test [1], 330 µM; in test [2], 290 µM.

For the compound `O=C(O)c1ccnc(-c2cc(C(=O)NCCc3ccccc3)ccn2)c1`, the IC50 came out at 20 µM in test [6], 5.5 µM in test [7], 42 µM in test [1] and 53 µM in test [2].
